Key:
B2 bradykinin receptor = target: T1, B2 bradykinin receptor (Homo sapiens, UniProt P30411)
T1 sequence (P30411 whole entry): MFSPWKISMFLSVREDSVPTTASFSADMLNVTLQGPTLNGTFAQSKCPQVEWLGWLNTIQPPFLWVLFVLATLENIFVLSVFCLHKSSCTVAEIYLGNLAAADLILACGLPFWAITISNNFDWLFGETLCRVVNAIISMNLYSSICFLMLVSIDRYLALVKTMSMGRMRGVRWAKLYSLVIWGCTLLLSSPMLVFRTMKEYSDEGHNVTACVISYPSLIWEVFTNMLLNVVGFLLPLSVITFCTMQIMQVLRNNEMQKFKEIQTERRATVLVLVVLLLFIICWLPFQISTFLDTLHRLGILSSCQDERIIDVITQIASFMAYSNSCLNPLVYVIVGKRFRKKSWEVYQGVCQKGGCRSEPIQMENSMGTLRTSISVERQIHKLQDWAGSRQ

[1] = target: T2, Muscarinic acetylcholine receptor M1 (Homo sapiens, UniProt P11229); type: functional
T2 sequence (P11229 whole entry): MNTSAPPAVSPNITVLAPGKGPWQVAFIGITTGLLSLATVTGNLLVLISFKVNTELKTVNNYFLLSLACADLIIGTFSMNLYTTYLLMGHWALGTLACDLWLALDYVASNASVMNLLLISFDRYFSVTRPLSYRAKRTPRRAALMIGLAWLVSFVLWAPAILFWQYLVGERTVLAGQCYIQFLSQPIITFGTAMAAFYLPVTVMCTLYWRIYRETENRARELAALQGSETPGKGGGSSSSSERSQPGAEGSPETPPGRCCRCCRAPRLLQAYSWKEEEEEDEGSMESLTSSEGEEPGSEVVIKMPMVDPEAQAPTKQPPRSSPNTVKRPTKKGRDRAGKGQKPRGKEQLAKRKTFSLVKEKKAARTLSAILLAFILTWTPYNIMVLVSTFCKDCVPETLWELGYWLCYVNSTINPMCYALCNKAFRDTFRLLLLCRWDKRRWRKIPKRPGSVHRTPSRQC

Melanocortin receptor 3 = Melanocortin receptor 3 (Homo sapiens, UniProt P41968)
Chain of Melanocortin receptor 3 (P41968 whole entry): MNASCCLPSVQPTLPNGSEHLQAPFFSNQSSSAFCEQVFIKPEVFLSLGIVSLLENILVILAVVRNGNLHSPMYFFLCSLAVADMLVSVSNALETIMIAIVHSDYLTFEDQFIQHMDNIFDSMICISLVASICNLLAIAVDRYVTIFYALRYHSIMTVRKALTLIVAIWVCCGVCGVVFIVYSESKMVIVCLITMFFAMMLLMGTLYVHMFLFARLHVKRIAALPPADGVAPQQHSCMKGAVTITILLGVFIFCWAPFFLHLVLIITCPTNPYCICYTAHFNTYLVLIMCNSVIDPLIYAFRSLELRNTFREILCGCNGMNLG

[2] = target: Voltage-dependent L-type calcium channel subunit alpha-1C (Rattus norvegicus, UniProt P22002); type: functional
Chain of Voltage-dependent L-type calcium channel subunit alpha-1C (P22002 whole entry): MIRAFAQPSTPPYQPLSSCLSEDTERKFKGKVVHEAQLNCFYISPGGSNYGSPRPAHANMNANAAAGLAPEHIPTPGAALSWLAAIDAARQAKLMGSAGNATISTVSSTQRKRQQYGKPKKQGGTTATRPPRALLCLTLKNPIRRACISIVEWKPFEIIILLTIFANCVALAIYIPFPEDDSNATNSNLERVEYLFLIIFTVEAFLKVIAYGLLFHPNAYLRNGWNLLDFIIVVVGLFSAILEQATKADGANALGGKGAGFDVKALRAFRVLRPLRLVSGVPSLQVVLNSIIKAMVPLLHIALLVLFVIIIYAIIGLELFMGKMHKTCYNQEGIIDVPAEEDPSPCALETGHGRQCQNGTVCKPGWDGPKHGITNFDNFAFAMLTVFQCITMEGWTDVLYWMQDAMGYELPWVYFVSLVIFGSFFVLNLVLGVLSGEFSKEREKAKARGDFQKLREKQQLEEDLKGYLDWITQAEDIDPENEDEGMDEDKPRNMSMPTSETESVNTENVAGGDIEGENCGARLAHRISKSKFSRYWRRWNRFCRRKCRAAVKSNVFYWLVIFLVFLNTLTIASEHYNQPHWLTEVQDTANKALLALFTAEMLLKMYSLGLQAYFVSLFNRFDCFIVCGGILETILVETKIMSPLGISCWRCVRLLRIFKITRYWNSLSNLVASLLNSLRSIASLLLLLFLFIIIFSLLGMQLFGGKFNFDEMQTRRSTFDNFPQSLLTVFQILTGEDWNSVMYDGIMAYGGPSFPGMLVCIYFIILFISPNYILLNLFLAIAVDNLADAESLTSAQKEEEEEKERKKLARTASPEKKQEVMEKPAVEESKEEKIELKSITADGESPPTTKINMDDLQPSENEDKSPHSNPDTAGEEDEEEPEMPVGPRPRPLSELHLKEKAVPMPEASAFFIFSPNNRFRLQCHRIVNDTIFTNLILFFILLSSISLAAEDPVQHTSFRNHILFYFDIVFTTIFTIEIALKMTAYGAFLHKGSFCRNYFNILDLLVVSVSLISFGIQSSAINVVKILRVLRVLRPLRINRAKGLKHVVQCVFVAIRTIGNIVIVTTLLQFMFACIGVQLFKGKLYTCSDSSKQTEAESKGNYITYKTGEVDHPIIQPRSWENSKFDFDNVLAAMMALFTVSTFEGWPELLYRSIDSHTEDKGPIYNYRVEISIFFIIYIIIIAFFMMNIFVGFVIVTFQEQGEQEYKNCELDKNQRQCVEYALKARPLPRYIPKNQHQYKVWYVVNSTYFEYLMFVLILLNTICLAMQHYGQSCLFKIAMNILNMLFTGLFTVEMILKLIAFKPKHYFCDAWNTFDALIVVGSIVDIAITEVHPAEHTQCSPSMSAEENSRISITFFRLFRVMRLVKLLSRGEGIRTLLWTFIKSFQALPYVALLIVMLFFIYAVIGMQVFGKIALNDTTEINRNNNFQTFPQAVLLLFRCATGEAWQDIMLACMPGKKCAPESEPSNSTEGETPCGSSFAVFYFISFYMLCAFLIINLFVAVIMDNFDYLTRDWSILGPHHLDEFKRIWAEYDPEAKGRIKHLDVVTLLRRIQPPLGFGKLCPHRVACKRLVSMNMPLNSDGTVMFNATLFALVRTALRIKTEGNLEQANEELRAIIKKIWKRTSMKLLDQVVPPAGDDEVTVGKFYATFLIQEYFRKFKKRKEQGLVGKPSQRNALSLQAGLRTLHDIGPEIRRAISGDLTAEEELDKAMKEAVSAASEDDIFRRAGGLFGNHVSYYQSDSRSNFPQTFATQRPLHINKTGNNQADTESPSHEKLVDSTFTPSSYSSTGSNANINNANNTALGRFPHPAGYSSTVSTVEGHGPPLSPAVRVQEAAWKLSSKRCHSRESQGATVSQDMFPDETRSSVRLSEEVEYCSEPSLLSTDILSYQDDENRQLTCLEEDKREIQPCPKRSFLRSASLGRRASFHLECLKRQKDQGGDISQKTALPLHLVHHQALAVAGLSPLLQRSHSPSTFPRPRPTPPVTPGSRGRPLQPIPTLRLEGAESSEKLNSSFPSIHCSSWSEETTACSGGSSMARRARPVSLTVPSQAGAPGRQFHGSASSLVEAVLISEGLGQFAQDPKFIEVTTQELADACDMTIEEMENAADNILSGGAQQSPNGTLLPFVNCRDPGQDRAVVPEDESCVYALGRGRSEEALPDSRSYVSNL

[3] = target: T3, 5-hydroxytryptamine receptor 1A (Homo sapiens, UniProt P08908); type: functional, cell-based
T3 sequence (P08908 whole entry): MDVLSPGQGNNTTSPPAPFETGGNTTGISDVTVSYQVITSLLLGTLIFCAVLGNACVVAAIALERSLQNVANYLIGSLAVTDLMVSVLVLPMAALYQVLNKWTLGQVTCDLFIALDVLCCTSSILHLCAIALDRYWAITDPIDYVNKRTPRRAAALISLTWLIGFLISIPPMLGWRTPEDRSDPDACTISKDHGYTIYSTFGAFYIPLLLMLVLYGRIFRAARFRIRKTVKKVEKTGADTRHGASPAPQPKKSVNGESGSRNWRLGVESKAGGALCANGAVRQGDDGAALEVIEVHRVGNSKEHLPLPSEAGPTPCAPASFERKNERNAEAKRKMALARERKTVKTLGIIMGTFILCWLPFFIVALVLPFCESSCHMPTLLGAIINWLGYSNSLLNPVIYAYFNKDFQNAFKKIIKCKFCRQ

[4] = target: 5-hydroxytryptamine receptor 2B (Homo sapiens, UniProt P41595); type: functional, cell-based
Chain of 5-hydroxytryptamine receptor 2B (P41595 whole entry): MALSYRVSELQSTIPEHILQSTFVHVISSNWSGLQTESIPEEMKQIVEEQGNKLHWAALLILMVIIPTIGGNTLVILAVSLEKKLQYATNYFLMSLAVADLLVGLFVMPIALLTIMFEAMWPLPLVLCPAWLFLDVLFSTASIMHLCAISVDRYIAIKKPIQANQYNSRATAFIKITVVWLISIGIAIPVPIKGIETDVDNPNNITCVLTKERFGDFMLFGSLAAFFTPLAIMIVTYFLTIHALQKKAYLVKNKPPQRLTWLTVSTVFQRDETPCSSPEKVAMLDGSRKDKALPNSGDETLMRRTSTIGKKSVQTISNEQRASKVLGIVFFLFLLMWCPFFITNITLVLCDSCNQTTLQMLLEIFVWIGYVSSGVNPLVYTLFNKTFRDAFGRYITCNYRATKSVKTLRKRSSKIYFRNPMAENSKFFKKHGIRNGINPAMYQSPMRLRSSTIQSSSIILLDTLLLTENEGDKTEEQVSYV

Histamine H1 receptor = Histamine H1 receptor (Homo sapiens, UniProt P35367)
Chain of Histamine H1 receptor (P35367 whole entry): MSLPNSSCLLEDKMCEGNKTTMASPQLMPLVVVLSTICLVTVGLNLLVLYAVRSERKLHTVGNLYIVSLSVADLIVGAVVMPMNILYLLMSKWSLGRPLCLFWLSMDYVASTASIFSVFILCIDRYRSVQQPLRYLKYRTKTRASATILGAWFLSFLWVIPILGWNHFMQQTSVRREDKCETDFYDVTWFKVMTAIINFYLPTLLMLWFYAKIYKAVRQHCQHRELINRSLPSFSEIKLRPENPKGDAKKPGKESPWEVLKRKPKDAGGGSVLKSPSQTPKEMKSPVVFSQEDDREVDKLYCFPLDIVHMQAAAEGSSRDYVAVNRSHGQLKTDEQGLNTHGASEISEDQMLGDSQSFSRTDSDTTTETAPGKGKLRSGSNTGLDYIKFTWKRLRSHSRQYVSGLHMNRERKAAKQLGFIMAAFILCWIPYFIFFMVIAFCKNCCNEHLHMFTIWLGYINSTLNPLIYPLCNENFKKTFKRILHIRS

[5] = target: Voltage-gated inwardly rectifying potassium channel KCNH2 (Homo sapiens, UniProt Q12809); type: functional; conditions: read-out: AC50
[6] = target: Sodium-dependent dopamine transporter (Homo sapiens, UniProt Q01959)
Chain of Sodium-dependent dopamine transporter (Q01959 whole entry): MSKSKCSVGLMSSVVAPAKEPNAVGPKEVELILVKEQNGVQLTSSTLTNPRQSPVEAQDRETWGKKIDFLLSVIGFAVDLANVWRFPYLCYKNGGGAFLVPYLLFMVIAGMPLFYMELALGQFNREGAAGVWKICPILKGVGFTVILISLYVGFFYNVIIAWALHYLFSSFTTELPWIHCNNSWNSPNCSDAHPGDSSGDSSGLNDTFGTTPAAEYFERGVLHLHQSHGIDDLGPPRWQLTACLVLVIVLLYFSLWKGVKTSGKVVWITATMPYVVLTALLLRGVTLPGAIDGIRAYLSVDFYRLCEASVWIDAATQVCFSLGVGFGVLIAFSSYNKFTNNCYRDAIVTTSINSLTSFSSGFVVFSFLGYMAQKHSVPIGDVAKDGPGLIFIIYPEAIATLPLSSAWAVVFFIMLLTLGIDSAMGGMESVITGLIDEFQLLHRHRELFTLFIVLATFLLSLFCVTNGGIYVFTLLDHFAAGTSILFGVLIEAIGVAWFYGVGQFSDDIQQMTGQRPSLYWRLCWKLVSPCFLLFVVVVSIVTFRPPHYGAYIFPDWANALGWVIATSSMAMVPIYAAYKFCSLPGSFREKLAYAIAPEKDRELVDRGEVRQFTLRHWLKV

[7] = target: Gamma-aminobutyric acid receptor subunit alpha-1 (Rattus norvegicus, UniProt P62813)
[8] = target: Neuronal acetylcholine receptor subunit alpha-4 (Homo sapiens, UniProt P43681)
Chain of Neuronal acetylcholine receptor subunit alpha-4 (P43681 whole entry): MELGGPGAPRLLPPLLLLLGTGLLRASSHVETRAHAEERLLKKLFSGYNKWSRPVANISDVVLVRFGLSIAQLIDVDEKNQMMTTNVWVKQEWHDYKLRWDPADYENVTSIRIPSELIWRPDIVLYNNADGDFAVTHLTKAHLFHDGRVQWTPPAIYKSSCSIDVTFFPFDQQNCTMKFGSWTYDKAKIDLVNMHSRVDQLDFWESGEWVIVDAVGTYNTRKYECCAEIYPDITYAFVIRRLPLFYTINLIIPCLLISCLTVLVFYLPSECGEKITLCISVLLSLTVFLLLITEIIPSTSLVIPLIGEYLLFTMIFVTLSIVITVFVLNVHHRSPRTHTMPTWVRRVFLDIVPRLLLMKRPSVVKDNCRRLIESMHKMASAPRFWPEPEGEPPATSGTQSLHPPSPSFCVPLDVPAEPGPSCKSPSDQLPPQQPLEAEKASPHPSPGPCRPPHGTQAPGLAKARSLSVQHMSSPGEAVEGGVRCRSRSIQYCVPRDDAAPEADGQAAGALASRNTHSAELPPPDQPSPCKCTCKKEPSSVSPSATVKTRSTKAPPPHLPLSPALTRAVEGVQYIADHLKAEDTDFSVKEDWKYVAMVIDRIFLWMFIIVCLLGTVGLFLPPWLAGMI

[9] = target: T4, Prostaglandin G/H synthase 1 (Rattus norvegicus, UniProt Q63921); type: functional
T4 sequence (Q63921 whole entry): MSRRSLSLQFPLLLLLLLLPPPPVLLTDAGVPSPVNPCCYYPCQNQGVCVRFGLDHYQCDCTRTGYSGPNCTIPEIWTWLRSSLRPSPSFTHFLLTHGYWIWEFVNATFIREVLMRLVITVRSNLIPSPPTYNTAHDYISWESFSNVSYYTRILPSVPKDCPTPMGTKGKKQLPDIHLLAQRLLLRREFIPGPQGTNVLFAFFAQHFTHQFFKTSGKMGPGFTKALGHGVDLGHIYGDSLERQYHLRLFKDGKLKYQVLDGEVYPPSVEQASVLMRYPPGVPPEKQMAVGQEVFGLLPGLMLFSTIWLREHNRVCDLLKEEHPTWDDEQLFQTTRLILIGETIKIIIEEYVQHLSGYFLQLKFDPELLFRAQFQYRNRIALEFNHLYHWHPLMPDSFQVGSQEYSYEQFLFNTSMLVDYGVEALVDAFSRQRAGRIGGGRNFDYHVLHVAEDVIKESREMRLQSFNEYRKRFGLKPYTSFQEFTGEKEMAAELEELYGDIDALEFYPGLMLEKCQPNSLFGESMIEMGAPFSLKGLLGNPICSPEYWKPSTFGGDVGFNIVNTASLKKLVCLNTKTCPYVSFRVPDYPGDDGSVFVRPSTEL
Also: assay procedure not described here.

Compound	AC50 (B2 bradykinin receptor)	AC50 [1]	AC50 (Melanocortin receptor 3)	AC50 [2]	AC50 [3]	AC50 [4]	AC50 (Histamine H1 receptor)	AC50 [5]	AC50 [6]	AC50 [7]	AC50 [8]	AC50 [9]
C[C@H](CSC(=O)c1ccccc1)C(=O)N1C[C@@H](Sc2ccccc2)C[C@H]1C(=O)O [ZOFENOPRIL]	> 10 µM	> 10 µM	> 10 µM	> 10 µM	> 10 µM	> 10 µM	> 10 µM	> 30 µM	> 10 µM	> 10 µM	> 10 µM	> 10 µM
CN1C(=O)OC(C)(C)C1=O [TRIMETHADIONE]	> 10 µM		> 10 µM	> 10 µM	> 10 µM	> 10 µM		> 30 µM	> 10 µM	> 10 µM	> 10 µM	> 10 µM
CC=CC(=O)N(CC)c1ccccc1C	> 10 µM		> 10 µM	> 10 µM	> 10 µM	> 10 µM		> 30 µM	> 10 µM	> 10 µM	> 10 µM	> 10 µM
CC[C@@H]1C(=O)OC[C@@H]1Cc1cncn1C [PILOCARPINE]	> 30 µM		> 30 µM	> 10 µM	> 30 µM	> 10 µM	> 10 µM	> 30 µM	> 30 µM	> 10 µM	> 10 µM	> 30 µM
CO[C@@H]1[C@@H](O[C@@H]2O[C@H](C)[C@@H](O[C@H]3C[C@@](C)(O)[C@@H](OC(=O)CC(C)C)[C@H](C)O3)[C@H](N(C)C)[C@H]2O)[C@@H](CC=O)C[C@@H](C)[C@@H](O)/C=C/C=C/C[C@@H](C)OC(=O)C[C@H]1OC(C)=O [JOSAMYCIN]	> 10 µM	> 10 µM	> 10 µM	> 10 µM	> 10 µM	> 10 µM	> 10 µM	> 30 µM	> 10 µM	> 10 µM	> 10 µM	> 10 µM
O=C(O)C1=C(CSc2nnnn2CS(=O)(=O)O)CS[C@@H]2[C@H](NC(=O)[C@H](O)c3ccccc3)C(=O)N12 [CEFONICID]	> 30 µM	> 30 µM	> 30 µM	> 30 µM	> 30 µM	> 30 µM	> 30 µM	> 30 µM	> 30 µM	> 30 µM	> 30 µM	> 30 µM
O=C(O)C[C@H](O)C[C@H](O)/C=C/c1c(C2CC2)nc2ccccc2c1-c1ccc(F)cc1 [PITAVASTATIN]	> 10 µM	> 30 µM	> 30 µM	> 10 µM	> 10 µM	> 10 µM	> 30 µM	> 30 µM	> 30 µM	> 10 µM	> 30 µM	> 30 µM
O=C(NCCN1CCOCC1)c1ccc(Cl)cc1 [MOCLOBEMIDE]	> 10 µM		> 10 µM	> 10 µM	> 10 µM	> 10 µM		> 30 µM	> 10 µM	> 10 µM	> 10 µM	> 10 µM
Cc1cccc(C(C)c2cnc[nH]2)c1C (stereo unspecified) [MEDETOMIDINE]	> 30 µM	> 30 µM	> 30 µM	> 30 µM	> 30 µM	> 30 µM	> 30 µM	17.8 µM	> 30 µM	> 10 µM	> 30 µM	> 30 µM

Reference: ChEMBL document CHEMBL5291721, “A preclinical secondary pharmacology resource illuminates target-adverse drug reaction associations of marketed drugs” (Nat Commun, 2023)
